Converted amounts (≈) assume the structure as drawn.
Assays:
[1] = test system: Staph.aureus 6538P; test: Minimum Inhibitory Concentration (MIC), broth dilution method; type: cell-based; conditions: Staphylococcus aureus, inoculum size 10^6 /ml
[2] = test system: Strept.faecalis 1501; test: as above; type: cell-based; conditions: for MIC: Enterococcus faecalis, 1501, Strept.faecalis 1501, inoculum size 10^6 /ml
[3] = test system: Staph.aureus MS 353AO; test: as above; type: cell-based; conditions: macrolide resistant clinical isolate (A group), inoculum size 10^6 /ml; for MIC: Staphylococcus aureus, MS353AO
Description: (§1) Minimum Inhibitory Concentration (MIC) μg/ml
(§2) *Erythromycin, oleandomycin, 16membered macrolide resistant strains of
(§3) clinical isolates (macrolide resistant Agroup strains) inoculum size
(§4) 10^6 /ml, broth dilution method.

[4] = test system: Staph.aureus 0119; test: as above; type: cell-based; conditions: inoculum size 10^6 /ml; for MIC: Staphylococcus aureus, 0119, Staph.aureus 0119, macrolide resistant clinical isolate (A group)
Description: as §1, §2, §3, §4

[5] = test system: Staph. aureus 0116; test: as above; type: cell-based; conditions: inoculum size 10^6 /ml; for MIC: Staphylococcus aureus, 0116, Staph. aureus 0116, macrolide resistant clinical isolate (A group)
Description: as §1, §2, §3, §4

[6] = test system: Strept.pyogenes 1022; test: as above; type: cell-based; conditions: inoculum size 10^6 /ml; for MIC: Streptococcus pyogenes, 1022, Strept.pyogenes 1022, macrolide resistant clinical isolate (A group)
Description: as §1, §2, §3, §4

[7] = Potency as compared with standard leucomycin
[8] = test system: Staph.aureus MS353; test: Minimum Inhibitory Concentration (MIC), broth dilution method; type: cell-based; conditions: Staphylococcus aureus, inoculum size 10^6 /ml
Description: as §1, §3, §4

[9] = test system: Staph.aureus MS353 C36; test: as above; type: cell-based; conditions: Staphylococcus aureus, MS353C36, Staph.aureus MS353 C36, inoculum size 10^6 /ml
Description: as §1, §3, §4

SMILES | MIC [1] [µg/mL] | MIC [2] [µg/mL] | Minimum Inhibitory Concentration (MIC) ([2]; Strept.faecalis 1501, inoculum size 10^6 /ml) [µg/mL] | MIC [3] [µg/mL] | Minimum Inhibitory Concentration (MIC) [3] [µg/mL] | Minimum Inhibitory Concentration (MIC) ([4]; Staph.aureus 0119, macrolide resistant clinical isolate (A group)) [µg/mL] | MIC [4] [µg/mL] | Minimum Inhibitory Concentration (MIC) ([5]; Staph. aureus 0116, macrolide resistant clinical isolate (A group)) [µg/mL] | MIC [5] [µg/mL] | Minimum Inhibitory Concentration (MIC) ([6]; Strept.pyogenes 1022, macrolide resistant clinical isolate (A group)) [µg/mL] | MIC [6] [µg/mL] | Potency [7] [µg/mg] | MIC [8] [µg/mL] | MIC [9] [µg/mL]
CCCC(=O)OC1C(C)OC(OC2C(C)OC(OC3C(CC=O)CC(C)C(O)C=CC=CCC(C)OC(=O)CC(O)C3OC)C(O)C2N(C)C)CC1(C)OC(C)=O (stereo not shown) [3"-acetyl LM-A5, 3"-acetyl leucomycin A5] | 1.6 (≈ 1.97 µM) | 0.8 (≈ 0.983 µM) | 1.6 | > 100 | 100 | > 100 | 100 (≈ 123 µM) | 12.5 | 6.3 (≈ 7.74 µM) | 0.8 | 0.4 (≈ 0.491 µM) | 2850 | 1.6 (≈ 1.97 µM) | 
CCCC(=O)OC1C(C)OC(OC2C(C)OC(OC3C(CC=O)CC(C)C(O)C=CC=CCC(C)OC(=O)CC(O)C3OC)C(O)C2N(C)C)CC1(C)OC(=O)CC (stereo not shown) [3"-propionyl LM-A5, 3"-propionyl leucomycin A5] | 0.8 (≈ 0.966 µM) | 0.8 (≈ 0.966 µM) |  | > 100 |  |  | > 100 |  | 12.5 (≈ 15.1 µM) |  | 0.4 (≈ 0.483 µM) | 2850 | 1.6 (≈ 1.93 µM) | 0.8 (≈ 0.966 µM)
CCCC(=O)OC1C(C)OC(OC2C(C)OC(OC3C(CC=O)CC(C)C(O)C=CC=CCC(C)OC(=O)CC(O)C3OC)C(O)C2N(C)C)CC1(C)OC(=O)CCC (stereo not shown) [3"butylyl LM-A5, 3"-butylyl leucomycin A5] | 0.8 (≈ 0.95 µM) | 0.8 (≈ 0.95 µM) |  | > 100 |  |  | 100 (≈ 119 µM) |  | 50 (≈ 59.4 µM) |  | 0.8 (≈ 0.95 µM) |  | 1.6 (≈ 1.9 µM) | 0.4 (≈ 0.475 µM)
CCCC(=O)OC1C(C)OC(OC2C(C)OC(OC3C(CC=O)CC(C)C(O)C=CC=CCC(C)OC(=O)CC(OC(C)=O)C3OC)C(O)C2N(C)C)CC1(C)OC(C)=O (stereo not shown) [3,3"-diacetyl LM-A5, 3,3"-diacetylleucomycin A5] | 1.6 (≈ 1.87 µM) | 1.6 (≈ 1.87 µM) |  | > 100 |  |  | > 100 |  | 50 (≈ 58.4 µM) |  | 1.6 (≈ 1.87 µM) |  | 1.6 (≈ 1.87 µM) | 0.8 (≈ 0.935 µM)
CCCC(=O)OC1(C)CC(OC2C(C)OC(OC3C(CC=O)CC(C)C(O)C=CC=CCC(C)OC(=O)CC(O)C3OC)C(O)C2N(C)C)OC(C)C1OC(C)=O (stereo not shown) [4"-acetyl-3"-butylyl LM-A5, 4"-acetyl-3"-butylyl leucomycin V] | 1.6 (≈ 1.97 µM) | 0.8 (≈ 0.983 µM) |  | 25 (≈ 30.7 µM) |  |  | > 100 |  | 50 (≈ 61.4 µM) |  | 6.3 (≈ 7.74 µM) |  | 1.6 (≈ 1.97 µM) | 0.8 (≈ 0.983 µM)
CCCC(=O)OC1C(C)OC(OC2C(C)OC(OC3C(CC=O)CC(C)C(OC(C)=O)C=CC=CCC(C)OC(=O)CC(O)C3OC)C(O)C2N(C)C)CC1(C)OC(C)=O (stereo not shown) [9,3"-diacetyl LM-A5, 9,3"-diacetyl leucomycin A5] | 0.8 (≈ 0.935 µM) | 1.6 (≈ 1.87 µM) |  | > 100 |  |  | 100 (≈ 117 µM) |  | 12.5 (≈ 14.6 µM) |  | 0.4 (≈ 0.467 µM) |  | 1.6 (≈ 1.87 µM) | 0.8 (≈ 0.935 µM)
COC1C(OC(C)=O)CC(=O)OC(C)CC=CC=CC(O)C(C)CC(CC=O)C1OC1OC(C)C(OC2CC(C)(O)C(OC(=O)CC(C)C)C(C)O2)C(N(C)C)C1O (stereo not shown) [LM-A3, Leucomycin A3, reference compound] | 3.1 (≈ 3.74 µM) | 3.1 (≈ 3.74 µM) |  | > 100 |  |  | > 100 |  | > 100 |  | > 100 |  | 3.1 (≈ 3.74 µM) | 1.6 (≈ 1.93 µM)
CCCC(=O)OC1C(C)OC(OC2C(C)OC(OC3C(CC=O)CC(C)C(O)C=CC=CCC(C)OC(=O)CC(O)C3OC)C(O)C2N(C)C)CC1(C)O (stereo not shown) [LM-A5, Leucomycin A5, reference compound] | 1.6 (≈ 2.07 µM) | 1.6 (≈ 2.07 µM) |  | > 100 |  |  | > 100 |  | > 100 |  | > 100 |  | 1.6 (≈ 2.07 µM) | 1.6 (≈ 2.07 µM)

From patent publication US4242504A, “3"-Acylated macrolide antibiotics” (Toyo Jozo Kabushiki Kaisha, priority 1978, dated 1980)
